From patent publication US20040122059A1, “PPAR-gamma ligands in the treatment of asthma and allergies” (The Penn State Research Foundation, priority 2002, published 2004)
Values joined by “and” are separate entries in the source; they are usually repeats but may differ in a detail not shown here. Equal values may be shown once.

Assays:
splenocytes = assay: Antigen specific cytokine production and proliferation of splenocytes from treated mice restimulated in vitro with OVA; type: in vivo, Balb/c mice; settings: for Proliferation: [3H]thymidine
Method: Measurement of lymphocyte proliferation and cytokine production. Th cells were cultured in 96 well plates for proliferation assays and 24 well plates for supernatants (Corning Costar, Corning, N.Y.). After 72 h, supernatants were collected for ELISAs. For proliferation assays, 0.4 μCi of [3H]thymidine (ICN, Costa Mesa, Calif.) was added to each well and the cells were incubated for an additional 18 h. Radioactive thymidine incorporation was determined by liquid scintillation using a Beta plate Counter. Mouse IL-2, IL-4, IL-5 and IFN-γ production were detected using ELISA kits from Pharmingen, following the instructions provided. […] Asthma was induced in the mice as described (Zhang et al. 1999. Immunity 11: 473). Briefly mice were injected intraperitoneally with 10 µg of OVA in Alum twice on day 1 and 5 of asthma induction (primed). On day 10, mice were challenged intranasally with OVA in sterile saline, every day for three days (40 μg total). In an alternative protocol the mice were only challenged intranasally (unprimed) with OVA for three consecutive days. Asthma induction was effective with or without the use of immunization (Alum and OVA injections). Two weeks after asthma induction (the day after the last intranasal challenge) the mice were sacrificed. Two different Ciglitazone treatments were done. […] The mice continued on these diets for the remainder of the study.

[1] = tested on: murine model of allergic asthma; assay: OVA-induced allergic asthma, lung histopathology (asthma severity); type: in vivo, Balb/c mice; settings: for Asthma severity (total histopathology score 0-6): 0.12 μM Ciglitazone/daily per mouse in diet from one week before induction
Method: Asthma was induced in the mice as described (Zhang et al. 1999. Immunity 11: 473). Briefly mice were injected intraperitoneally with 10 µg of OVA in Alum twice on day 1 and 5 of asthma induction (primed). On day 10, mice were challenged intranasally with OVA in sterile saline, every day for three days (40 μg total). In an alternative protocol the mice were only challenged intranasally (unprimed) with OVA for three consecutive days. Asthma induction was effective with or without the use of immunization (Alum and OVA injections). Two weeks after asthma induction (the day after the last intranasal challenge) the mice were sacrificed. Two different Ciglitazone treatments were done. […] The mice continued on these diets for the remainder of the study. […] Asthma severity. The lungs were fixed in formalin and sent to the Penn State University Animal Diagnostic Laboratories for sectioning and staining with hematoxylin and eosin. The sections were scored blindly on a scale of 0 to 3 for inflammation and 0-3 for epithelial thickening. […] The inflammation and epithelial scores for each section were added together for a total histopathology score ranging from 0-6. The results are presented as means±SEMs. […] In this model, mice are initially exposed to OVA in complex with Alum intraperitoneally, then challenged intranasally with OVA. This protocol usually leads to increased inflammatory cell infiltration into the lung, thickening of the epithelial cells lining the bronchioles of the lung, mucous secretion and in most cases, increased presence of circulating serum IgE. These symptoms highlight the predominant TH2 nature of this disease. Mice (Balb/c) were primed and with OVA intranasally as described in the Materials and Methods section. Twenty-four hours after the final intranasal challenge, mice were analyzed for immunological symptoms of allergic asthma. […]

TH2 cells = assay: Cytokine production by TH2-primed DO11.10 CD4+ T cells stimulated with PMA and ionomycin; type: cell-based, mouse; settings: PGJ2 10 mM, CLA 5 mM, 72 h supernatant ELISA
Method: (§1) TH cell cultures. Lymph node and spleen cells from the DO11.10 TCR transgenic mice were removed and CD4 positive cells were isolated using the CD4 Immunocolumns and the manufacturer's instructions (Cedarlane labs, Homby, Canada). CD4 positive T cells (95-98% pure) were cultured in vitro with OVA and mitomycin C treated splenocytes from congenic mice. The cultures were incubated under neutral conditions (TH0 priming) or with rIL-4 and anti-IFN-γ antibodies (TH2 priming), or with rIL-12 (TH1 priming). After 4 days (4d) in culture the cells were collected and dead splenocytes were removed by centrifugation over histopaque. […] T cells were collected and recultured with rIL-2 (Pharmingen) for 3 d to expand the T cells. Cells were then collected, washed and stimulated for proliferation and cytokine synthesis with phorbal myristiyl acetate (PMA, Sigma, St. Louis, Mo.) and ionomycin (Sigma) in the presence of PJG2, conjugated linoleic acid (CLA) or control treated.
(§2) Measurement of lymphocyte proliferation and cytokine production. Th cells were cultured in 96 well plates for proliferation assays and 24 well plates for supernatants (Corning Costar, Corning, N.Y.). After 72 h, supernatants were collected for ELISAs. For proliferation assays, 0.4 μCi of [3H]thymidine (ICN, Costa Mesa, Calif.) was added to each well and the cells were incubated for an additional 18 h. Radioactive thymidine incorporation was determined by liquid scintillation using a Beta plate Counter. Mouse IL-2, IL-4, IL-5 and IFN-γ production were detected using ELISA kits from Pharmingen, following the instructions provided. The ELISA detection limits were 25 pg/ml IL-2, 62 pg/ml IL-4, 312 pg/ml IL-5, and 1000 pg/ml IFN-γ.
(§3) The present inventors decided to test if T cells are direct targets of PPAR-γ ligands. Purified CD4+T cells carrying the transgenic TcR for OVA (DO11.10) were cultured in vitro with OVA and mitomycin C treated splenocytes under neutral conditions (THO priming) or with rIL-4 and anti-IFN-γ antibodies (TH2 priming), or with rIL-12 (TH1 priming). Following 4 days of initial culture, cells were isolated and expanded in rIL-2. These expanded antigen specific T cells were stimulated in the presence or absence of PJG2, a PPAR-γ ligand and cells analyzed for proliferation and cytokine synthesis (Table 1). As previously characterized, cells initially stimulated under TH1 conditions (TH1 cells) secreted more IFN-γ and IL-2 and less IL-4 and IL-5 than those initially stimulated under TH2 conditions (TH2 cells). The TH1 and TH2 cells were greater than 95% CD4+and carried the transgenic TcR (data not shown). The PPAR-γ ligand PGJ2 regulated cytokine production in both TH1 and TH2 cells. PGJ2 inhibited IL-4 and IL-5 production in TH1 cells and inhibited IFN-γ, IL-2, and IL-5 production in TH2 cells (Table 1).

TH1 cells = assay: Cytokine production by TH1-primed DO11.10 CD4+ T cells stimulated with PMA and ionomycin; type: cell-based, mouse; settings: PGJ2 10 mM, CLA 5 mM, 72 h supernatant ELISA
Method: as §1, §2, §3

[2] = Primed mice, late Ciglitazone treatment

| Molecule | IL-5 (splenocytes; Primed mice fed Ciglitazone) | Proliferation (splenocytes; Primed mice fed Ciglitazone) | IFN-γ (splenocytes; [2]) | IL-4 (splenocytes; [2]) | IL-5 (splenocytes; [2]) | Proliferation (splenocytes; [2]) | Asthma severity (total histopathology score 0-6) ([1]; PRIMED mice (OVA/Alum i.p., then intranasal OVA)) | Asthma severity (total histopathology score 0-6) ([1]; UNPRIMED mice, intranasal OVA challenge only) | Histopathology score of representative lung section (FIG. 1B) ([1]; representative lung, Ciglitazone treated) | IL-4 (TH2 cells) | IFN-γ (TH1 cells) | IL-2 (TH1 cells) | IFN-γ (TH2 cells) | IL-2 (TH2 cells) | IL-5 (TH2 cells) | IL-5 (TH1 cells) |
| --- | --- | --- | --- | --- | --- | --- | --- | --- | --- | --- | --- | --- | --- | --- | --- | --- |
| CC1(COc2ccc(CC3SC(=O)NC3=O)cc2)CCCCC1 (stereo not shown) [Ciglitazone] | 903 ± 87 pg/mL | 10649 ± 492 CPM | 4063 ± 170 pg/mL | 395 ± 92 pg/mL | 875 ± 79 pg/mL | 10579 ± 1477 CPM | 1+/−0.3 and 1.0 ± 0.3 | 0.8+/−0.2 and 0.8±0.2 | 1 | – | – | – | – | – | – | – |
| CCCCC/C=C/C=C1/C(=O)C=C[C@@H]1C/C=C\CCCC(=O)O [PGJ2, 15-deoxy-Delta(12,14)-prostaglandin J(2)] | – | – | – | – | – | – | – | – | – | 1861 ± 28 pg/mL | 14370 ± 250 pg/mL | 512 ± 1 pg/mL | – | – | – | – |
| conjugated linoleic acid [CLA] | – | – | – | – | – | – | – | – | – | 1863 ± 62 pg/mL | 14689 ± 370 pg/mL | 522 ± 20 pg/mL | 5592 ± 306 pg/mL | 224 ± 4 pg/mL | 240 ± 52 pg/mL | 150 ± 6 pg/mL |
